Source: patent US9108944B2, “Androgen receptor modulators and uses thereof” (ARAGON PHARMACEUTICALS, INC., priority 2010, dated 2015)

How the values were obtained:
[1] = target: T1, AR-VP16 (Homo sapiens, UniProt P10275); assay: AR-VP16 DNA Binding Assay, agonist mode (HepG2 cells); type: cell-based; details: Emax >20x DMSO control = agonist
T1 sequence (P10275 560-920 limits assumed): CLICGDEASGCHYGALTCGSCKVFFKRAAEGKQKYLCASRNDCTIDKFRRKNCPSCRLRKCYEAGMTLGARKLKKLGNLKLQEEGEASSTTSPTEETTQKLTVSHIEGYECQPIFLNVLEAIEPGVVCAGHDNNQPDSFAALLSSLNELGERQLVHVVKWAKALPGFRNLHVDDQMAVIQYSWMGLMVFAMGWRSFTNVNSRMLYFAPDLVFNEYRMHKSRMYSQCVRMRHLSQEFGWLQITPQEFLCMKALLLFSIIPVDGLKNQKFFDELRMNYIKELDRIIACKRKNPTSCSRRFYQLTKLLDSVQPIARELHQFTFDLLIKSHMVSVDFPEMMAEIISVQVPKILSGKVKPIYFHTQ

[2] = target: T1, AR-VP16; assay: AR-VP16 DNA Binding Assay, antagonist mode (HepG2 cells, 0.1 nM R1881); type: cell-based
Summary of the method: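 HepG2 cells transiently transfected with AR-VP16 (Lipofectin), incubated overnight, then treated with compound in RPMI with charcoal-stripped serum. Antagonist mode adds R1881 at 0.1 nM final. Cells lysed after 48 h incubation for read-out.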

Row | SMILES | ARVP16 DNA Binding Assay (Agonist mode): Agonist? [1] | IC50 [2] [nM]
1 | Cc1cc(N2C(=O)C3(CCC3)N(c3ccc(C(=O)O)c(F)c3)C2=S)cnc1C#N [Compound 225, 4-(7-(6-Cyano-5-methylpyridin-3-yl)-8-oxo-6-thioxo-5,7-diazaspiro[3.4]octan-5-yl)-2-fluorobenzoic acid] | No (Agonist defined as a compound whose Emax in the ARVP16 DNA Binding Assay (Agonist mode) is >20x DMSO control) | < 1000
2 | N#Cc1ncc(N2C(=O)C3(CCC3)N(c3ccccc3CO)C2=S)cc1C(F)(F)F [Compound 68, 5-(5-(2-(Hydroxymethyl)phenyl)-8-oxo-6-thioxo-5,7-diazaspiro[3.4]octan-7-yl)-3-(trifluoromethyl)picolinonitrile] | No (Agonist defined as a compound whose Emax in the ARVP16 DNA Binding Assay (Agonist mode) is >20x DMSO control) | > 1000
3 | N#Cc1ccccc1N1C(=S)N(c2cnc(C#N)c(C(F)(F)F)c2)C(=O)C12CCC2 [Compound 10, 5-(5-(2-Cyanophenyl)-8-oxo-6-thioxo-5,7-diazaspiro[3.4]octan-7-yl)-3-(trifluoromethyl)picolinonitrile] | No (Agonist defined as a compound whose Emax in the ARVP16 DNA Binding Assay (Agonist mode) is >20x DMSO control) | > 1000
4 | Cc1ccc(CN2C(=S)N(c3cnc(C#N)c(C(F)(F)F)c3)C(=O)C23CCC3)cc1 [Compound 84, 5-(5-(4-Methylbenzyl)-8-oxo-6-thioxo-5,7-diazaspiro[3.4]octan-7-yl)-3-(trifluoromethyl)picolinonitrile] | Yes (Agonist defined as a compound whose Emax in the ARVP16 DNA Binding Assay (Agonist mode) is >20x DMSO control) | < 1000
5 | N#Cc1ncc(N2C(=O)C3(CCC3)N(c3ccc(C(=O)NCCc4ccncc4)c(F)c3)C2=S)cc1C(F)(F)F [Compound 238, 4-(7-(6-Cyano-5-(trifluoromethyl)pyridin-3-yl)-8-oxo-6-thioxo-5,7-diazaspiro[3.4]octan-5-yl)-2-fluoro-N-(2-(pyridin-4-yl)ethyl)benzamide] | No (Agonist defined as a compound whose Emax in the ARVP16 DNA Binding Assay (Agonist mode) is >20x DMSO control) | > 1000
6 | N#Cc1ncc(N2C(=O)C3(CCC3)N(c3ccccc3F)C2=S)cc1C(F)(F)F [Compound 26, 5-(5-(2-Fluorophenyl)-8-oxo-6-thioxo-5,7-diazaspiro[3.4]octan-7-yl)-3-(trifluoromethyl)picolinonitrile] | Yes (Agonist defined as a compound whose Emax in the ARVP16 DNA Binding Assay (Agonist mode) is >20x DMSO control) | < 1000
7 | N#Cc1ncc(N2C(=O)C3(CCC3)N(c3ccc(F)c(OCCc4ccccc4)c3)C2=S)cc1C(F)(F)F [Compound 162, 5-(5-(4-Fluoro-3-phenethoxyphenyl)-8-oxo-6-thioxo-5,7-diazaspiro[3.4]octan-7-yl)-3-(trifluoromethyl)picolinonitrile] | No (Agonist defined as a compound whose Emax in the ARVP16 DNA Binding Assay (Agonist mode) is >20x DMSO control) | > 1000
8 | CNC(=O)c1ccc(N2C(=S)N(c3ccc(C#N)c(C(F)(F)F)n3)C(=O)C23CCC3)cc1F [Compound 35, 4-(7-(5-Cyano-6-(trifluoromethyl)pyridin-2-yl)-8-oxo-6-thioxo-5,7-diazaspiro[3.4]octan-5-yl)-2-fluoro-N-methylbenzamide] | No (Agonist defined as a compound whose Emax in the ARVP16 DNA Binding Assay (Agonist mode) is >20x DMSO control) | > 1000
9 | CN1CCN(CCOc2ccc(N3C(=S)N(c4cnc(C#N)c(C(F)(F)F)c4)C(=O)C34CCC4)cc2)CC1 [Compound 178, 5-(5-(4-(2-(4-Methylpiperazin-1-yl)ethoxy)phenyl)-8-oxo-6-thioxo-5,7-diazaspiro[3.4]octan-7-yl)-3-(trifluoromethyl)picolinonitrile] | No (Agonist defined as a compound whose Emax in the ARVP16 DNA Binding Assay (Agonist mode) is >20x DMSO control) | < 1000
10 | N#Cc1ncc(N2C(=O)C3(CCC3)N(c3ccc(C(=O)NCCc4ccccc4)c(F)c3)C2=S)cc1C(F)(F)F [Compound 257, 4-(7-(6-Cyano-5-(trifluoromethyl)pyridin-3-yl)-8-oxo-6-thioxo-5,7-diazaspiro[3.4]octan-5-yl)-2-fluoro-N-phenethylbenzamide] | No (Agonist defined as a compound whose Emax in the ARVP16 DNA Binding Assay (Agonist mode) is >20x DMSO control) | < 1000
11 | N#Cc1ncc(N2C(=O)C3(CCC3)N(c3ccc(C4CCOCC4)cc3)C2=S)cc1C(F)(F)F [Compound 115, 5-(8-Oxo-5-(4-(tetrahydro-2H-pyran-4-yl)phenyl)-6-thioxo-5,7-diazaspiro[3.4]octan-7-yl)-3-(trifluoromethyl)picolinonitrile] | No (Agonist defined as a compound whose Emax in the ARVP16 DNA Binding Assay (Agonist mode) is >20x DMSO control) | < 1000
12 | Cc1cc(N2C(=O)C3(CCC3)N(c3ccc(C(=O)NCC4CCOCC4)c(F)c3)C2=S)cnc1C#N [Compound 311, 4-(7-(6-Cyano-5-methylpyridin-3-yl)-8-oxo-6-thioxo-5,7-diazaspiro[3.4]octan-5-yl)-2-fluoro-N-((tetrahydro-2H-pyran-4-yl)methyl)benzamide] | No (Agonist defined as a compound whose Emax in the ARVP16 DNA Binding Assay (Agonist mode) is >20x DMSO control) | > 1000
13 | CNC(=O)c1ccc(N2C(=S)N(c3cnc(C#N)c(C)c3)C(=O)C23CCC3)cc1 [Compound 78, 4-(7-(6-Cyano-5-methylpyridin-3-yl)-8-oxo-6-thioxo-5,7-diazaspiro[3.4]octan-5-yl)-N-methylbenzamide] | No (Agonist defined as a compound whose Emax in the ARVP16 DNA Binding Assay (Agonist mode) is >20x DMSO control) | > 1000
14 | CN1CCN(CCNC(=O)c2ccc(N3C(=S)N(c4cnc(C#N)c(C(F)(F)F)c4)C(=O)C34CCC4)cc2F)CC1 [Compound 243, 4-(7-(6-Cyano-5-(trifluoromethyl)pyridin-3-yl)-8-oxo-6-thioxo-5,7-diazaspiro[3.4]octan-5-yl)-2-fluoro-N-(2-(4-methylpiperazin-1-yl)ethyl)benzamide] | No (Agonist defined as a compound whose Emax in the ARVP16 DNA Binding Assay (Agonist mode) is >20x DMSO control) | > 1000
15 | Cc1cc(N2C(=S)N(c3cnc(C#N)c(C)c3)C(=O)C23CCC3)ccc1C(N)=O [Compound 233, 4-(7-(6-Cyano-5-methylpyridin-3-yl)-8-oxo-6-thioxo-5,7-diazaspiro[3.4]octan-5-yl)-2-methylbenzamide] | No (Agonist defined as a compound whose Emax in the ARVP16 DNA Binding Assay (Agonist mode) is >20x DMSO control) | > 1000
16 | CCOC(=O)CCCNC(=O)c1ccc(N2C(=S)N(c3cnc(C#N)c(C(F)(F)F)c3)C(=O)C23CCC3)cc1F [Compound 247, Ethyl 4-(4-(7-(6-cyano-5-(trifluoromethyl)pyridin-3-yl)-8-oxo-6-thioxo-5,7-diazaspiro[3.4]octan-5-yl)-2-fluorobenzamido)butanoate] | No (Agonist defined as a compound whose Emax in the ARVP16 DNA Binding Assay (Agonist mode) is >20x DMSO control) | > 1000
17 | O=C1N(c2ccc3nnc(C(F)(F)F)n3n2)C(=S)N(c2ccc(O)c(F)c2)C12CCC2 [Compound 117, 5-(3-Fluoro-4-hydroxyphenyl)-6-thioxo-7-(3-(trifluoromethyl)-[1,2,4]triazolo[4,3-b]pyridazin-6-yl)-5,7-diazaspiro[3.4]octan-8-one] | No (Agonist defined as a compound whose Emax in the ARVP16 DNA Binding Assay (Agonist mode) is >20x DMSO control) | > 1000
18 | Cc1ccc(N2C(=S)N(c3cnc(C#N)c(Cl)c3)C(=O)C23CCC3)cc1 [Compound 57, 3-Chloro-5-(8-oxo-6-thioxo-5-(p-tolyl)-5,7-diazaspiro[3.4]octan-7-yl)picolinonitrile] | No (Agonist defined as a compound whose Emax in the ARVP16 DNA Binding Assay (Agonist mode) is >20x DMSO control) | < 1000
19 | Cc1ccc(N2C(=S)N(c3ccc4nccn4c3)C(=O)C23CCC3)cc1 [Compound 62, 7-(Imidazo[1,2-a]pyridin-6-yl)-6-thioxo-5-(p-tolyl)-5,7-diazaspiro[3.4]octan-8-one] | No (Agonist defined as a compound whose Emax in the ARVP16 DNA Binding Assay (Agonist mode) is >20x DMSO control) | > 1000
20 | Cc1cc(N2C(=O)C3(CCC3)N(c3ccc(C(=O)Nc4cccc(F)c4)c(F)c3)C2=S)cnc1C#N [Compound 298, 4-(7-(6-Cyano-5-methylpyridin-3-yl)-8-oxo-6-thioxo-5,7-diazaspiro[3.4]octan-5-yl)-2-fluoro-N-(3-fluorophenyl)benzamide] | No (Agonist defined as a compound whose Emax in the ARVP16 DNA Binding Assay (Agonist mode) is >20x DMSO control) | < 1000
21 | CN1CCN(CCOc2ccc(N3C(=S)N(c4cnc(C#N)c(C(F)(F)F)c4)C(=O)C34CCC4)cc2F)CC1 [Compound 149, 5-(5-(3-Fluoro-4-(2-(4-methylpiperazin-1-yl)ethoxy)phenyl)-8-oxo-6-thioxo-5,7-diazaspiro[3.4]octan-7-yl)-3-(trifluoromethyl)picolinonitrile] | No (Agonist defined as a compound whose Emax in the ARVP16 DNA Binding Assay (Agonist mode) is >20x DMSO control) | < 1000
